Entries after “also recorded” stand apart in the source; their conditions may differ. Marks after values point to notes of the source that are not given here.
Legend:
MCF-7 (breast cancer) = assay: Survival fraction after 72 hours exposure (MTT assay); format: cell-based, human
Experimental: (§1) Growth inhibition was measured by the MTT assay. Survival fraction is calculated from at least 3 experiments, and differences in survival fraction are statistically significant P<0.05, using the Paired Two-Sample For Means T-Test. […] PC-3=prostate cancer; A549=non-small cell cancer; OvCar=ovarian cancer; CaCo=colon cancer; MCF-7=breast cancer; and SW900=non-small cell lung cancer.

OvCar (ovarian cancer) = assay: as above; format: cell-based, human
Experimental: as §1

PC-3 (prostate cancer) = assay: as above; format: cell-based, human
Experimental: as §1

[1] = tested on: SW900 (non-small cell lung cancer); assay: as above; format: cell-based, human
Experimental: as §1

EBV-TK MRNA = assay: EBV-TK mRNA dose response experiments; format: cell-based; settings: in vitro
Experimental: In vitro, peaks induction of EBV-TK plateaus at serum level of around 1 mM. […] Therefore, dose levels up to 2,000 mg/kg/day, were evaluated in an attempt to reach serum levels of 1 mM. Treatment cycles were of 4 week duration, with 3 weeks on treatment and one week off. Patients were given the standard dose of GCV throughout each 21 day course of arginine butyrate, starting, however, on day 0. Arginine butyrate was given by continuous IV infusion at 500 mg/kg/day for 2 days, at 1,000 mg/kg/day for 2 days, at 1,500 mg/kg/day for 2 days, and thereafter at 2,000 mg/kg/day, or as tolerated, for the rest of the 21 day course. Cycle 2 was begun on Day 29. Patients were given a complete tumor evaluation after every course with subsequent cycles emitted unless disease progressed.
In some experiments sodium was used instead of arginine to neutralize butyric acid. In dose response experiments, levels of EBV-TK MRNA plateaus at around 1 mM to 3 mM sodium butyrate, inducing levels essentially equivalent to those induced by 1 mM arginine butyrate. […] Similarly, levels of GCV above 30 μM were generally cytocidal to both to EBV+ and EBV− cell lines. Cell lines used were X50-7, a latent EBV+ B-cell lymphoma; Akata, a producer EBV+ Burkitt's lymphoma; HPB-ALL, a T-cell line; and Nalm-6, an EBV− B-cell line. […]

[2] = Clinical toxicity in patients; format: in vivo, human; settings: for grade 3 or 4 toxicities: patients treated up to 2,000 mg/kg/day
Experimental: Clinical experience with butyrates have been performed in children with acute myelogenous leukemia in Israel, and in children with neuroblastoma (K. Prasad, Life Sci. 27:1351-58, 1980). […] Eleven pediatric patients and twelve adults with β-hemoglobinopathies were treated with IV arginine butyrate at a starting dose of 500 mg/kg/day for 2-7 weeks. If no side effects were noted, the rate was increased by 250 mg/kg/day to a final rate of 1500 mg/kg/day in 4 patients, and 2000 mg/kg/day in 2 patients. […] This rise in BUN returned to normal within 12 hours of discontinuation of drug, and is thought to be secondary to effect of arginine upon ureagenesis. […] Peak serum levels of butyrate ranged between 0.04-0.05 mM, and butyrate was not detectable 15 minutes after infusion was discontinued. Plasma arginine levels were also rapidly cleared, with a T1/2 of 15 minutes, and baseline arginine levels were reached within 12 hours after discontinuation of infusion.
(§2) Three patients with refractory neoplasms (breast, melanoma, adenocarcinoma, of unknown primary) have been enrolled and completed 1-2 cycles of arginine butyrate as a dose of 500 mg/kg/day over 6-8 hours for 10 days.
(§3) Three patients (with breast cancer, bowel cancer or Hodgkins disease) have completed two cycles of arginine butyrate at a dose of 750 mg/kg/day for 10 days. […] Otherwise, there was no other objective measures of organ progressed after treatment was topped. […] There was a further resolution of the disease during the second cycle. Disease progression was noted one month after second cycle was completed. At 1000 mg/kg/day, 3 patients have been enrolled on study.
(§4) An inter-group dose-escalation study is being conducted in patients with refractory malignancies. There are 3 patients per group with the dose levels starting at 500 mg/kg/day, and increasing by 250 mg/kg/day per group, if toxicity permits. Doses are given by 8 hour IV infusion, daily, for 5 days times 2 weeks, with weekends off, for a total of 10 days of treatment per cycle.

refractory neoplasms = assay: Tumor response in patients with refractory neoplasms; format: in vivo, human
Experimental: as §2, §3, §4

[3] = tested on: Colonic Adenocarcinoma (HT 29); assay: Differentiation and growth arrest of tumor cell line; format: cell-based, human
Experimental: The effects of arginine butyrate compounds on differentiation of several human tumor cell lines were evaluated by visual inspection and by histochemical and pathological staining:
Inhibition of DNA synthesis (as measured by ^3H-thymidine incorporation) occurred by 6 hours. Expression of the proto-oncogene c-myc was decreased by 2 hours.

[4] = tested on: human malignant cell lines from breast, colon, lung, prostate, ovarian and lymphoid sources; assay: Cytotoxicity as single agent, cell death at 72 hours; format: cell-based; settings: all concentrations tested
IL-2 receptor = assay: Expression of the IL-2 receptor; format: cell-based
Description: The IL-2 receptor is a target for therapies currently under development. For example, antibodies directed to the IL-2 receptor and conjugated to a toxin, are currently being tested in the clinic, and IL-2, itself conjugated to a toxin, is currently being tested in the clinic. […] This increased expression might potentiate the therapies under development.

[5] = tested on: SY5Y neuroblastoma cell line; assay: Induction of apoptosis / DNA fragmentation
[6] = Table 3, 0.5 AB (0.5 mM), 72 hours
[7] = Table 4, 0.5 AB (0.5 mM), 72 hour

Substance: arginine butyrate
- Survival Fraction (MCF-7 (breast cancer); Table 4, 0.5 AB (0.5 mM)): 0.74*
- Survival Fraction (MCF-7 (breast cancer); Table 4, .05 AB): 0.89*
- Survival Fraction (OvCar (ovarian cancer); [6]): 0.86**
- Survival Fraction (OvCar (ovarian cancer); [7]): 0.88*
- Survival Fraction (OvCar (ovarian cancer); Table 4, .05 AB, 72 hour): 0.96
- Survival Fraction (PC-3 (prostate cancer); [6]): 0.67*
- Survival Fraction (PC-3 (prostate cancer); [7]): 0.74*
- Survival Fraction (PC-3 (prostate cancer); Table 4, .05 AB, 72 hour): 0.82*
- Survival Fraction ([1]; Table 4, 0.5 AB (0.5 mM)): 0.92
- Survival Fraction ([1]; Table 4, .05 AB): 0.95
- level at which peak induction of EBV-TK plateaus (EBV-TK MRNA): around 1 mM
- patients with grade 1 nausea/vomiting ([2]; 500 mg/kg/day, three patients): Two of the three patients
- patients with grade I nausea/vomiting ([2]; 750 mg/kg/day for 10 days, three patients): One of the three patients; also recorded: One, of the three patients
- serum BUN ([2]; 750 mg/kg/day, one patient): transient elevation of serum BUN
- time to resolution of BUN elevation and proteinuria after discontinuation ([2]; 750 mg/kg/day, one patient): ≤ 5 days
- toxic side effects ([2]; adults, IV infusion of similar doses): no toxic side effects
- grade 3 or 4 toxicities ([2]; listed as Arginine butyrate): no grade 3 and no grade 4 toxicities reported
- grade 3 or 4 toxicities ([2]; listed as arginine butyrate): no grade 3 or 4 toxicities
- organ specific toxicity ([2]; recorded by principal investigators): No organ specific toxicity was recorded
- objective toxicities (hepatic, renal, cardiac, pulmonary, hematopoietic) ([2]; refractory neoplasms, 500 mg/kg/day over 6-8 hours for 10 days): no objective toxicities noted
- untoward side effects ([2]; three cancer patients, emergency basis, up to 2,000 mg/kg/day, 10 days): no untoward side effects noted
- side effect: anorexia ([2]; β-hemoglobinopathies, IV 500-2000 mg/kg/day): Transient anorexia developed in one patient
- side effect: serum aminotransferase ([2]; β-hemoglobinopathies, IV 500-2000 mg/kg/day, 2-7 weeks): transient, slight rise in serum aminotransferase
- time for rise in BUN to return to normal after discontinuation ([2]; β-hemoglobinopathies, continuous infusion over 2 weeks): ≤ 12 h
- objective tumor responses (refractory neoplasms; 500 mg/kg/day, three patients, 1-2 cycles): No objective tumor responses were noted
- stable disease (refractory neoplasms; 750 mg/kg/day, after two cycles): Two patients had stable disease after two cycles
- partial response, reduction in tumor area (refractory neoplasms; 750 mg/kg/day, patient with Hodgkin's disease, after first cycle): > 80%
- morphology and differentiation markers [3]: developed a mature brush border, and increased expression of sucrase/isomaltase
- time by which expression of proto-oncogene c-myc was decreased [3]: ≤ 2 h
- time by which inhibition of DNA synthesis (3H-thymidine incorporation) occurred [3]: ≤ 6 h
- growth arrest ([3]; no further growth out to 25 days): absolute growth arrest by day 3-4
- concentrations at which cell death at 72 hours was seen [4]: 0.1 to 5.0 mM
- IL-2 receptor expression (IL-2 receptor): increase expression of the IL-2 receptor
- apoptosis ([5]; FIG. 1c): induces apoptosis
- DNA fragmentation ([5]; both 0.5 and 1.0 mM): significant DNA fragmentation was found

Reference: patent publication US6677302B2, “Compositions and methods for the treatment of viral disorders” (The Trustees of Boston University, priority 1996, dated 2004)
